From patent US11292770B2, “Pyridazinone herbicides” (FMC Corporation, priority 2017, dated 2022)

Key:
Type in all cases: in vivo
[1] = system: foxtail, green (green foxtail, Setaria viridis); test: Test A preemergence, foxtail, green; conditions: 0 to 100 scale
Text: (§1) Seeds of plant species selected from barnyardgrass (Echinochloa crus-galli), kochia (Kochia scoparia), ragweed (common ragweed, Ambrosia elation), ryegrass, Italian (Italian ryegrass, Lolium multiflorum), foxtail, green (green foxtail, Setaria viridis), and pigweed (Amaranthus retroflexus) were planted into a blend of loam soil and sand and treated preemergence with a directed soil spray using test chemicals formulated in a non-phytotoxic solvent mixture which included a surfactant. At the same time, plants selected from these weed species and also wheat (Triticum aestivum), corn (Zea mays), blackgrass (Alopecurus myosuroides), and galium (catchweed bedstraw, Galium aparine) were planted in pots containing the same blend of loam soil and sand and treated with postemergence applications of test chemicals formulated in the same manner Plants ranged in height from 2 to 10 cm and were in the one- to two-leaf stage for the postemergence treatment. Treated plants and untreated controls were maintained in a greenhouse for approximately 10 d, after which time all treated plants were compared to untreated controls and visually evaluated for injury. Plant response ratings, summarized in Table A, are based on a 0 to 100 scale where 0 is no effect and 100 is complete control. A dash (—) response means no test result.

[2] = system: barnyardgrass (Echinochloa crus-galli); test: Test A postemergence, barnyardgrass; conditions: 0 to 100 scale
Text: as §1

[3] = system: ryegrass, Italian (Italian ryegrass, Lolium multiflorum); test: Test A postemergence, ryegrass, Italian; conditions: 0 to 100 scale
Text: as §1

[4] = system: galium (catchweed bedstraw, Galium aparine); test: Test A postemergence, galium; conditions: 0 to 100 scale
Text: as §1

[5] = system: ragweed (common ragweed, Ambrosia elation); test: Test A postemergence, ragweed; conditions: 0 to 100 scale
Text: as §1

[6] = system: foxtail, green (green foxtail, Setaria viridis); test: Test A postemergence, foxtail, green; conditions: 0 to 100 scale
Text: as §1

[7] = system: blackgrass (Alopecurus myosuroides); test: Test A postemergence, blackgrass; conditions: 0 to 100 scale
Text: as §1

[8] = system: barnyardgrass (Echinochloa crus-galli); test: Test A preemergence, barnyardgrass; conditions: 0 to 100 scale
Text: as §1

[9] = system: ragweed (common ragweed, Ambrosia elation); test: Test A preemergence, ragweed; conditions: 0 to 100 scale
Text: as §1

[10] = system: kochia (Kochia scoparia); test: Test A preemergence, kochia; conditions: 0 to 100 scale
Text: as §1

[11] = system: barnyardgrass (Echinochloa crus-galli); test: Test B flooded paddy test, barnyardgrass; conditions: Flood, 250 g ai/ha; scale of 0 to 100, 0 no effect, 100 complete control
Experimental: (§2) Plant species in the flooded paddy test selected from rice (Oryza sativa), sedge, umbrella (small-flower umbrella sedge, Cyperus difformis), ducksalad (Heteranthera limosa), and barnyardgrass (Echinochloa crus-galli) were grown to the 2-leaf stage for testing. At the time of treatment, test pots were flooded to 3 cm above the soil surface, treated by application of test compounds directly to the paddy water, and then maintained at that water depth for the duration of the test. Treated plants and controls were maintained in a greenhouse for 13 to 15 d, after which time all species were compared to controls and visually evaluated. Plant response ratings, summarized in Table B, are based on a scale of 0 to 100 where 0 is no effect and 100 is complete control. A dash (—) response means no test result.

[12] = system: rice (Oryza sativa); test: Test B flooded paddy test, rice; conditions: Flood, 250 g ai/ha; scale of 0 to 100
Experimental: as §2

[13] = system: kochia (Kochia scoparia); test: Test A postemergence, kochia; conditions: 0 to 100 scale
Text: as §1

[14] = system: pigweed (Amaranthus retroflexus); test: Test A preemergence, pigweed; conditions: 0 to 100 scale
Text: as §1

[15] = system: corn (Zea mays); test: Test A postemergence, corn; conditions: 0 to 100 scale
Text: as §1

[16] = system: ducksalad (Heteranthera limosa); test: Test B flooded paddy test, ducksalad; conditions: Flood, 250 g ai/ha; scale of 0 to 100
Experimental: as §2

[17] = system: ryegrass, Italian (Italian ryegrass, Lolium multiflorum); test: Test A preemergence, ryegrass, Italian; conditions: 0 to 100 scale
Text: as §1

[18] = system: sedge, umbrella (small-flower umbrella sedge, Cyperus difformis); test: Test B flooded paddy test, sedge, umbrella; conditions: Flood, 250 g ai/ha; scale of 0 to 100
Experimental: as §2

[19] = system: pigweed (Amaranthus retroflexus); test: Test A postemergence, pigweed; conditions: 0 to 100 scale
Text: as §1

[20] = system: wheat (Triticum aestivum); test: Test A postemergence, wheat; conditions: 0 to 100 scale
Text: as §1

[21] = 125 g ai/ha, 0 no effect, 100 complete control

Row | SMILES | Plant response rating, Foxtail, Green ([1]; 31 g ai/ha) | Plant response rating, Foxtail, Green ([1]; 125 g ai/ha) | Plant response rating, Barnyardgrass ([2]; 31 g ai/ha) | Plant response rating, Barnyardgrass [2, 21] | Plant response rating, Ryegrass, Italian ([3]; 31 g ai/ha) | Plant response rating, Ryegrass, Italian ([3]; 125 g ai/ha) | Plant response rating, Galium ([4]; 31 g ai/ha) | Plant response rating, Galium ([4]; 125 g ai/ha) | Plant response rating, Ragweed ([5]; 31 g ai/ha) | Plant response rating, Ragweed ([5]; 125 g ai/ha) | Plant response rating, Foxtail, Green ([6]; 31 g ai/ha) | Plant response rating, Foxtail, Green ([6]; 125 g ai/ha) | Plant response rating, Blackgrass ([7]; 31 g ai/ha) | Plant response rating, Blackgrass ([7]; 125 g ai/ha) | Plant response rating, Barnyardgrass ([8]; 31 g ai/ha) | Plant response rating, Barnyardgrass ([8]; 125 g ai/ha) | Plant response rating, Ragweed ([9]; 31 g ai/ha) | Plant response rating, Ragweed ([9]; 125 g ai/ha) | Plant response rating, Kochia ([10]; 31 g ai/ha) | Plant response rating, Kochia ([10]; 125 g ai/ha) | further results
1 | Cn1nc(Cl)c(O)c(-c2c3ccccc3c(Cl)c3ccccc23)c1=O [Compound 2, 6-chloro-4-(10-chloro-9-anthracenyl)-5-hydroxy-2-methyl-3(2H)-pyridazinone] | 0 | 90 | 0 | 20 | 50 | 80 | 20 | 100 | 90 | 90 | 10 | 60 | 0 | 60 | 0 | 0 | 80 | 100 | 0 | 10 | Plant response rating, Barnyardgrass [11]: 0; Plant response rating, Rice [12]: 0; Plant response rating, Kochia ([13]; 31 g ai/ha): 10; Plant response rating, Kochia ([13]; 125 g ai/ha): 70; Plant response rating, Pigweed ([14]; 31 g ai/ha): 100; Plant response rating, Pigweed ([14]; 125 g ai/ha): 100; Plant response rating, Corn ([15]; 31 g ai/ha): 0; Plant response rating, Corn ([15]; 125 g ai/ha): 0; Plant response rating, Ducksalad [16]: 80; Plant response rating, Ryegrass, Italian ([17]; 31 g ai/ha): 20; Plant response rating, Ryegrass, Italian ([17]; 125 g ai/ha): 70; Plant response rating, Sedge, Umbrella [18]: 75; Plant response rating, Pigweed ([19]; 31 g ai/ha): 100; Plant response rating, Pigweed ([19]; 125 g ai/ha): 100; Plant response rating, Wheat ([20]; 31 g ai/ha): 0; Plant response rating, Wheat ([20]; 125 g ai/ha): 30
2 | Cc1c2ccccc2c(-c2c(O)c(Cl)nn(C)c2=O)c2ccccc12 [Compound 5] | 0 | 0 | 0 | 30 | 0 | 50 | 20 | 70 | 10 | 20 | 0 | 30 | 0 | 0 | 0 | 0 | 0 | 0 | 0 | 0 | Plant response rating, Barnyardgrass [11]: 0; Plant response rating, Rice [12]: 0; Plant response rating, Kochia ([13]; 31 g ai/ha): 0; Plant response rating, Kochia ([13]; 125 g ai/ha): 0; Plant response rating, Pigweed ([14]; 31 g ai/ha): 0; Plant response rating, Pigweed ([14]; 125 g ai/ha): 60; Plant response rating, Corn ([15]; 31 g ai/ha): 10; Plant response rating, Corn ([15]; 125 g ai/ha): 20; Plant response rating, Ducksalad [16]: 90; Plant response rating, Ryegrass, Italian ([17]; 31 g ai/ha): 0; Plant response rating, Ryegrass, Italian ([17]; 125 g ai/ha): 0; Plant response rating, Sedge, Umbrella [18]: 95; Plant response rating, Pigweed ([19]; 31 g ai/ha): 50; Plant response rating, Pigweed ([19]; 125 g ai/ha): 90; Plant response rating, Wheat ([20]; 31 g ai/ha): 0; Plant response rating, Wheat ([20]; 125 g ai/ha): 0
3 | Cn1nc(Cl)c(O)c(-c2c3ccccc3c(Br)c3ccccc23)c1=O [Compound 3, 4-(10-bromo-9-anthracenyl)-6-chloro-5-hydroxy-2-methyl-3(2H)-pyridazinone] | 10 | 80 | 20 | 60 | 40 | 50 | 90 | 90 | 80 | 90 | 40 | 90 | 10 | 70 | 0 | 50 | 20 | 100 | 0 | 50 | Plant response rating, Kochia ([13]; 31 g ai/ha): 10; Plant response rating, Kochia ([13]; 125 g ai/ha): 50; Plant response rating, Pigweed ([14]; 31 g ai/ha): 100; Plant response rating, Pigweed ([14]; 125 g ai/ha): 100; Plant response rating, Corn ([15]; 31 g ai/ha): 0; Plant response rating, Corn ([15]; 125 g ai/ha): 10; Plant response rating, Ryegrass, Italian ([17]; 31 g ai/ha): 20; Plant response rating, Ryegrass, Italian ([17]; 125 g ai/ha): 80; Plant response rating, Pigweed ([19]; 31 g ai/ha): 100; Plant response rating, Pigweed ([19]; 125 g ai/ha): 100; Plant response rating, Wheat ([20]; 31 g ai/ha): 20; Plant response rating, Wheat ([20]; 125 g ai/ha): 60
